Results on 36 molecules are retold here after PubChem BioAssay AID720588 (Broad Institute, 2013).

Activity calls are given as the source filed them.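 The calls were made as follows: active = fitted curve falls past a set limit of signal loss at no more than twice the top dose; inconclusive = flat fit between 30 and 70% signal loss, or poor fit; inactive = signal rise, flat within 30%, or crossing too high.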

This experiment is described as follows: ATP-based viability loss in HEK293T cells – cell-based, CellTiter-Glo luminescence, cherry-pick, set 3, cytotoxicity control, dose response (AID 720588). The conditions noted are these: HEK293T viability, CellTiter-Glo ATP luminescence, 72 h. For orientation: In ATP-based viability assays light output follows the ATP content of the culture.

Regarding `Cc1csc(NC(=O)CCc2c(C)nc3cc(-c4ccc(Cl)cc4)nn3c2C)n1`, the activity change, negative = cytotoxicity (at 26 µM (top of the series)) is -13.4% (inactive).
As to `CCCNC(=O)N1[C@H](C#N)[C@H](c2ccc(C#Cc3cccc(F)c3)cc2)[C@H]1CO`, where the note is “at 23.5 µM (top of the series)”, the activity change, negative = cytotoxicity is -0.501% (inactive).
Regarding `Cc1ccc2oc(/N=C(\N)NC(=O)C(C)(C)C)nc2c1`, the activity change, negative = cytotoxicity (at 26 µM (top of the series)) is -11% (inactive).
On to `C[C@H](CO)N1C[C@H](C)[C@H](CN(C)Cc2ccc(Oc3ccccc3)cc2)Oc2ccc(NC(=O)CCCCCC(=O)Nc3ccccc3N)cc2CC1=O`, for which the activity change, negative = cytotoxicity (at 26 µM (top of the series)) is -19.4% (inactive).
As for `Cc1cc(C)cc(OCC(=O)OCC(=O)Nc2cc(S(=O)(=O)N3CCOCC3)ccc2C)c1`, the activity change, negative = cytotoxicity (at 26 µM (top of the series)) is -14.2% (inactive).
Take `COc1cc(-c2coc3c(C(=O)NCc4ccc(C(F)(F)F)cc4)cccc23)ccc1O`: the activity change, negative = cytotoxicity (at 26 µM (top of the series)) was -23% (inactive).
The same measure, in the same setting: then `N#C[C@H]1[C@H](c2ccc(-c3ccccc3F)cc2)[C@@H](CO)N1C(=O)Cc1ccccc1`, with -28.3% (inactive); and `Nc1ccc(Oc2ccccc2-c2ccccc2)cc1`, with -8.94% (inactive).
For the molecule `Cc1ccc(C(=O)CN2C(=O)c3ccccc3S2(=O)=O)cc1`, the activity change, negative = cytotoxicity (at 26 µM (top of the series)) is -1.54% (inactive).
Turning to `COCCCNc1ccn2nc(-c3ccccc3)cc2n1`, the activity change, negative = cytotoxicity (at 26 µM (top of the series)) is -27.1% (inactive).
For `O=C(N/N=C/c1ccc[nH]1)c1cc(-c2ccc(Cl)cc2)nc2ccccc12`, under “at 26 µM (top of the series)”, the activity change, negative = cytotoxicity is -26.6% (inactive).
Take `COc1ccc(CCC(C)NCC2CCCCC2)cc1` (stereo unspecified): the activity change, negative = cytotoxicity (at 26 µM (top of the series)) is 4.78% (inactive).
Still for that read-out and setting: then `CCCCOc1ccc(NC(=O)C(=O)NCCCn2ccnc2)cc1`, with -3.53% (inactive).
As to `COC(=O)C[C@@H]1CC[C@@H]2[C@@H](COc3ccc(NC(=O)Cc4cccs4)cc3C(=O)N2C)O1`, the activity change, negative = cytotoxicity (at 26 µM (top of the series)) is -8.47% (inactive).
With `O=C1c2ccccc2C(=O)N1CCCCNc1ccccc1`, the activity change, negative = cytotoxicity (at 26 µM (top of the series)) is 4.32% (inactive).
With `O=C(/C=C/c1cc(Br)ccc1O)c1ccco1`, the activity change, negative = cytotoxicity (at 26 µM (top of the series)) was -23.9% (inactive).
Regarding `COc1ccccc1/C=C1\SC(=S)N(CCC(=O)Nc2cc(C)on2)C1=O`, under “at 26 µM (top of the series)”, the activity change, negative = cytotoxicity was 8.14% (inactive).
For `Cc1c(CC(=O)NCCCC(=O)O)c(=O)oc2cc3c(cc12)CCC(C)(C)O3`, where the note is “at 26 µM (top of the series)”, the activity change, negative = cytotoxicity was -63.2% (inactive).
Turning to `CC(C)CN(C(=O)CN1CCOCC1)c1c(N)n(CC(C)C)c(=O)[nH]c1=O`, where the note is “at 26 µM (top of the series)”, the activity change, negative = cytotoxicity is 6.36% (inactive).
The same measure, in the same setting: then `COc1ccc(C2=Nn3c(nnc3-c3ccccc3F)SC2)cc1OC1CCOC1` (stereo unspecified), with -7.39% (inactive); and `COc1ccc(S(=O)(=O)N2CCCc3nc(-c4ccc(F)cc4)ccc32)cc1`, with -5.94% (inactive); and `CCn1c(C)cc(C(=O)CN2C(=O)c3ccccc3S2(=O)=O)c1C`, with -4.24% (inactive).
Same read-out and setting: then `COc1ccc(/C=C2\SC(=S)N(CCCC(=O)Nc3ccc(O)cc3)C2=O)cc1`, with -27.6% (inactive); and `Cc1cc(C(=O)Nc2ccc3c(c2)C(=O)N(C)[C@@H]2CC[C@H](CC(=O)N[C@H](C)c4ccccc4)O[C@H]2CO3)no1`, with 8.37% (inactive); and `CC(C)(C)c1ccc(Oc2ccc(NC(=O)C3CC=CCC3C(=O)O)cc2)cc1` (stereo unspecified), with -16.1% (inactive).
As for `COc1ccc(Cl)cc1S(=O)(=O)Nc1ccc2c(c1)n(C)c(=O)n2C`, the activity change, negative = cytotoxicity (at 26 µM (top of the series)) was -13.3% (inactive).
Take `C[C@H](CO)N1C[C@H](C)[C@H](CN(C)Cc2ccc(C(=O)Nc3ccccc3N)cc2)Oc2ccc(NS(=O)(=O)c3cccs3)cc2C1=O`: under “at 26 µM (top of the series)”, the activity change, negative = cytotoxicity was -25.3% (inactive).
For `Cc1ccc(Cl)cc1NC(=O)Cn1cc(C(F)(F)F)cc(Cl)c1=O`, the activity change, negative = cytotoxicity (at 26 µM (top of the series)) was 0.88% (inactive).
On the same count and under the same terms, then `O=C(CN1C(=O)C(=O)c2ccccc21)c1ccc(Cl)cc1`, with -23.4% (inactive); and `COc1ccc(C(=O)Nc2cccc(C(=O)N/N=C/c3ccc(OC)cc3OC)c2)cc1`, with -15.7% (inactive).
`COc1ccc(/C=C2/SC(=S)N(CCCC(=O)Nc3ccccc3C(=O)O)C2=O)cc1`: the activity change, negative = cytotoxicity (at 26 µM (top of the series)) was -21% (inactive).
Same read-out and setting: for `CCCn1nnc(NC(=S)NC(=O)C(C)(C)C)n1` the value was -9.98% (inactive); for `C(=N\Nc1ccc2ccccc2n1)/c1ccc2c(c1)OCO2`, -17.5% (inactive); for `CCOc1ccc(-c2cc(CCCC(=O)NCc3ccc(C)cc3)no2)cc1`, 8.45% (inactive).
Same read-out and setting: then `COc1ccc(Nc2ncnc3ccc(Br)cc23)c(OC)c1`, with -18.8% (inactive); and `N#C[C@H]1N[C@H](CO)[C@H]1c1ccc(C#Cc2ccc(F)cc2)cc1`, with -13% (inactive).
